Assays:
[1] = target: GST-tagged human ROCK1 catalytic domain 1-477 (Homo sapiens (Human), UniProt Q13464); experiment: Inhibition of Rho-associated protein kinase isoform 1 (LANCE Ultra ULight-CREBtide FRET kinase assay); assay type: biochemical; settings: 30 μM was the highest concentration analyzed
How it was run: (§1)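 Baculovirus-expressed kinase phosphorylated ULight-CREBtide for 90 min at room temperature before the reaction was stopped with 10 mM EDTA. Phospho-substrate was detected by TR-FRET with 1 nM Europium-anti-phospho-CREB (Ser133) antibody after 60 min at room temperature.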

[2] = target: GST-tagged human ROCK2 catalytic domain 1-553 (Homo sapiens (Human), UniProt O75116); experiment: Inhibition of Rho-associated protein kinase isoform 2 (LANCE Ultra ULight-CREBtide FRET kinase assay); assay type: biochemical; settings: for IC50: 30 μM was the highest concentration analyzed; for Selectivity for ROCK2 over ROCK1 (IC50 ROCK1 / IC50 ROCK2): selectivity ROCK2 vs ROCK1
How it was run: as §1

Chain of GST-tagged human ROCK2 catalytic domain 1-553 (O75116 1-553): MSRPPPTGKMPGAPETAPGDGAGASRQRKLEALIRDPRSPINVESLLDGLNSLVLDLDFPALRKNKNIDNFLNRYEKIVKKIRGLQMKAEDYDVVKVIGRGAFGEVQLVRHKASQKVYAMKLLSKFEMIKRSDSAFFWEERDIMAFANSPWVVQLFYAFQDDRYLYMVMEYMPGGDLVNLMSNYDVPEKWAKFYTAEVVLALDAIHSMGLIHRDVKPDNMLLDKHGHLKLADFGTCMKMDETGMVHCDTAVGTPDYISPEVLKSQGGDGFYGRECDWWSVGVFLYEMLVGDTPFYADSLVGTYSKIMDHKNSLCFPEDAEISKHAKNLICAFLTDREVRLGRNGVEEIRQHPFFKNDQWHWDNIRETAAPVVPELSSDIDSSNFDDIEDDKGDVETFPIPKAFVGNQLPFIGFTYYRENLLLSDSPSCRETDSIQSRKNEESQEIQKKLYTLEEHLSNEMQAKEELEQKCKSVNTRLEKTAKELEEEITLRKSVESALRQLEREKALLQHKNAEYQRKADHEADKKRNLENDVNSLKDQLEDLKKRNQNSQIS
Chain of GST-tagged human ROCK1 catalytic domain 1-477 (Q13464 1-477): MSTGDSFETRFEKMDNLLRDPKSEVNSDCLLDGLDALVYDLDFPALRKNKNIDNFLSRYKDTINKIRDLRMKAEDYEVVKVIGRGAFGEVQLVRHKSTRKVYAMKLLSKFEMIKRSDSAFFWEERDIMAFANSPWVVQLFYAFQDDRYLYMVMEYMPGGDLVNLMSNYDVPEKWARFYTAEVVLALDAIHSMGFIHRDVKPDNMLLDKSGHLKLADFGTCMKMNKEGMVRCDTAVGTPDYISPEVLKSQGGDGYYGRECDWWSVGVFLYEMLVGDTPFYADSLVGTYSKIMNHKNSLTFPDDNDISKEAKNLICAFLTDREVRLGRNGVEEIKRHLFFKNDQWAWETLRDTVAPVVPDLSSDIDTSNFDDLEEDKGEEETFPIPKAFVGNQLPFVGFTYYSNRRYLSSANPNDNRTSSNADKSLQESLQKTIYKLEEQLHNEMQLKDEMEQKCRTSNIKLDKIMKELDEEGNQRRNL

| Structure (SMILES) | IC50 [1] | IC50 [2] | Selectivity for ROCK2 over ROCK1 (IC50 ROCK1 / IC50 ROCK2) [2] |
| --- | --- | --- | --- |
| FC(F)(F)c1nc2c(-c3nnc(Nc4ccc5[nH]ncc5c4Cl)s3)cc(Br)cn2n1 [Example 50B] | 1 to 15 µM | < 1 µM | >100 |
| Clc1c(Nc2nnc(-c3cccn4cc(C5CCCO5)nc34)s2)ccc2[nH]ncc12 (stereo not shown) [Example 50C] | < 1 µM | < 1 µM | >5 |
| O=C(O)c1ccc(-c2cn3cccc(-c4nnc(Nc5ccc6[nH]ncc6c5Cl)s4)c3n2)cc1 [Example 50E] | > 30 µM | < 1 µM | >100 |
| CC(C)(O)c1ccc(-c2cn3cccc(-c4nnc(Nc5ccc6[nH]ncc6c5Cl)s4)c3n2)cc1 [Example 50F] | < 1 µM | < 1 µM | >5 |
| Clc1c(Nc2nnc(-c3cccn4cc(C5CCCN5)nc34)s2)ccc2[nH]ncc12 (stereo not shown) [Example 50G] | < 1 µM | < 1 µM | <5 |
| Clc1c(Nc2nnc(-c3cccn4cc(C5CCNCC5)nc34)s2)ccc2[nH]ncc12 [Example 50H] | 1 to 15 µM | < 1 µM | >5 |
| CC(=O)c1ccc(-c2cn3cccc(-c4nnc(Nc5ccc6[nH]ncc6c5Cl)s4)c3n2)cc1 [Example 51, 1-(4-(8-(5-((4-Chloro-1H-indazol-5-yl)amino)-1,3,4-thiadiazol-2-yl)imidazo[1,2-a]pyridin-2-yl)phenyl)ethan-1-one] | > 30 µM | < 1 µM | >100 |
| CC(C)c1cn2cccc(-c3nnc(Nc4ccc5[nH]ncc5c4Cl)s3)c2n1 [Example 52B] | < 1 µM | < 1 µM | <5 |
| FC(F)(F)c1cn2cccc(-c3nnc(Nc4ccc5[nH]ncc5c4Cl)s3)c2n1 [Example 52C] | > 30 µM | < 1 µM | >100 |
| CCc1cn2cccc(-c3nnc(Nc4ccc5[nH]ncc5c4Cl)s3)c2n1 [Example 52D] | < 1 µM | < 1 µM | >5 |
| Clc1c(Nc2nnc(-c3cccn4cc(-c5ccc(Br)cc5)nc34)s2)ccc2[nH]ncc12 [Example 52E] | > 30 µM | < 1 µM | >100 |
| Brc1cc(-c2nnc(Nc3ccc4[nH]ncc4c3)s2)c2nccn2c1 [Example 52F] | > 30 µM | < 1 µM | >100 |
| Brc1ccc(-c2cn3cccc(-c4nnc(Nc5ccc6[nH]ncc6c5)s4)c3n2)cc1 [Example 52G] | > 30 µM | < 1 µM | >100 |
| CN(c1nnc(-c2cccc(NC(=O)Cc3ccc(C#N)cc3)c2)s1)c1ccc2[nH]ncc2c1Cl [Example 54B] | > 30 µM | 15 to 30 µM | <5 |
| Cc1cnn(CC(=O)Nc2cccc(-c3nnc(N(C)c4ccc5[nH]ncc5c4Cl)s3)c2)c1 [Example 54C] | 1 to 15 µM | 1 to 15 µM | <5 |
| CC(=O)Nc1cccc(-c2nnc(N(C)c3ccc4[nH]ncc4c3)s2)c1 [Example 54D] | 1 to 15 µM | 1 to 15 µM | – |
| COc1cccc(-c2nnc(N(CCO)c3ccc4[nH]ncc4c3)s2)c1 [Example 54E] | 15 to 30 µM | 15 to 30 µM | – |
| Clc1c(Nc2nnc(-c3cccc4[nH]c(-c5cccs5)nc34)s2)ccc2[nH]ncc12 [Example 56B] | > 30 µM | < 1 µM | >100 |
| CN1C(=O)Cc2cccc(-c3nnc(Nc4ccc5[nH]ncc5c4Cl)s3)c21 [Example 56C] | 1 to 15 µM | 1 to 15 µM | <5 |
| O=C1Cc2c(cccc2-c2nnc(Nc3ccc4[nH]ncc4c3Cl)s2)N1 [Example 56D] | > 30 µM | < 1 µM | >100 |

Reference: patent US10112935B2, “Indazolyl thiadiazolamines and related compounds for inhibition of Rho-associated protein kinase and the treatment of disease” (Lycera Corporation, priority 2015, dated 2018)
